Measurements as given in ChEMBL document CHEMBL5512637, “Development of Membrane-Targeting Fluorescent 2-Phenyl-1H-phenanthro[9,10-d]imidazole-Antimicrobial Peptide Mimic Conjugates against Methicillin-Resistant Staphylococcus aureus” (J Med Chem, 2024).
Active and inactive are the calls of the source.

What was measured:
[1] = Toxicity in KM mouse assessed as change in mental health at 5 to 80 mg/kg, sc measured for 24 hrs; format: organism-based; settings: in vivo, dose 5-80 mg/kg
[2] = Toxicity in KM mouse assessed as change in albumin level at 20 mg/kg, sc measured after 24 hrs; format: organism-based; settings: in vivo
Staphylococcus aureus [3] = assay: Antibacterial activity against methicillin-resistant Staphylococcus aureus clinical isolate M-5 incubated for 16 to 18 hrs CLSI based by microbroth dilution assay; format: functional; settings: time 16-18 hrs
[4] = Toxicity in KM mouse assessed as histological abnormality in liver at 20 mg/kg, sc measured after 24 hrs by H and E staining based analysis; format: organism-based; settings: in vivo
Staphylococcus aureus [5] = assay: Antibacterial activity against methicillin-resistant Staphylococcus aureus clinical isolate M-7 incubated for 16 to 18 hrs CLSI based by microbroth dilution assay; format: functional; settings: time 16-18 hrs
Staphylococcus aureus [6] = assay: Disruption of cell membrane in methicillin-resistant Staphylococcus aureus clinical isolate M-4 assessed as increase in red fluorescence at 4 ug/ml incubated for 4 hrs by DAPI/PI staining based laser confocal microscopy; format: functional, organism-based; settings: dose 4.0 µg/ml
Staphylococcus aureus [7] = assay: Antibacterial activity against Staphylococcus aureus ATCC 29213 incubated for 16 to 18 hrs CLSI based by microbroth dilution assay; format: functional; settings: time 16-18 hrs
[8] = Toxicity in KM mouse infected with methicillin-resistant Staphylococcus aureus clinical isolate M-4 assessed as histopathological abnormality in lungs at 5 to 10 mg/kg, sc measured after 24 hrs by H and E staining based analysis; format: organism-based; settings: in vivo, dose 5-10 mg/kg
Staphylococcus aureus [9] = assay: Antibacterial activity against methicillin-resistant Staphylococcus aureus clinical isolate M-1 incubated for 16 to 18 hrs CLSI based by microbroth dilution assay; format: functional; settings: time 16-18 hrs
Staphylococcus aureus [10] = assay: Antibacterial activity against methicillin-resistant Staphylococcus aureus clinical isolate M-4 infected in KM mouse assessed as reduction in skin inflammation at 10 mg/kg, sc measured after 24 hrs by H and E staining based analysis; format: functional, organism-based
Staphylococcus aureus [11] = assay: Antibacterial activity against methicillin-resistant Staphylococcus aureus clinical isolate M-4 infected in KM mouse assessed as decrease in erythema in subcutaneous tissue at 5 to 10 mg/kg, sc measured after 24 hrs by H and E staining based analysis; format: functional, organism-based; settings: dose 5-10 mg/kg
Staphylococcus aureus [12] = assay: Antibacterial activity against methicillin-resistant Staphylococcus aureus clinical isolate M-4 incubated for 16 to 18 hrs CLSI based by microbroth dilution assay; format: functional; settings: time 16-18 hrs
Staphylococcus aureus [13] = assay: Bactericidal activity against Staphylococcus aureus ATCC 29213 by time kill assay; format: functional, organism-based
Staphylococcus aureus [14] = assay: Disruption of cell membrane in methicillin-resistant Staphylococcus aureus clinical isolate M-4 assessed as increase in red fluorescence at 32 ug/ml incubated for 2 hrs by SYTO9/PI staining based flow cytometry relative to control; format: functional; settings: dose 32 µg/ml
[15] = Toxicity in KM mouse assessed as survival rate at 5 to 80 mg/kg, sc measured for 24 hrs; format: organism-based; settings: in vivo, dose 5-80 mg/kg
[16] = Toxicity in KM mouse assessed as change in platelet count at 20 mg/kg, sc measured after 24 hrs; format: organism-based; settings: in vivo
Staphylococcus aureus [17] = assay: Disruption of cell membrane in methicillin-resistant Staphylococcus aureus clinical isolate M-4 assessed as increase in red fluorescence incubated for 2 hrs by SYTO9/PI staining based flow cytometry; format: functional, organism-based; settings: dose 4-64 µg/ml
Staphylococcus aureus [18] = assay: Bactericidal activity against methicillin-resistant Staphylococcus aureus clinical isolate M-4 by time kill assay; format: functional, organism-based
[19] = Toxicity in KM mouse assessed as animal abnormality at 5 to 80 mg/kg, sc measured for 24 hrs; format: organism-based; settings: in vivo, dose 5-80 mg/kg
Staphylococcus aureus [20] = assay: Induction of resistance development in Staphylococcus aureus ATCC 29213 assessed as fold increase in MIC at MIC measured after 17 passages relative to control; format: functional
Staphylococcus aureus [21] = assay: Antibacterial activity against methicillin-resistant Staphylococcus aureus clinical isolate M-4 infected in KM mouse assessed as decrease in abscesses in subcutaneous tissue at 5 to 10 mg/kg, sc measured after 24 hrs by H and E staining based analysis; format: functional, organism-based; settings: dose 5-10 mg/kg
Staphylococcus aureus [22] = assay: Bactericidal activity against Staphylococcus aureus ATCC 29213 at 8 times MIC incubated for 1 hr by time kill assay relative to control; format: functional
Staphylococcus aureus [23] = assay: Disruption of cell membrane in methicillin-resistant Staphylococcus aureus clinical isolate M-4 assessed as fold increase in fluorescence intensity at 32 ug/ml measured after 20 mins by DiSC3(5) dye based analysis relative to control; format: functional; settings: dose 32 µg/ml
Staphylococcus aureus [24] = assay: Antibacterial activity against methicillin-resistant Staphylococcus aureus clinical isolate M-4 upto 128 ug/ml incubated for 16 to 18 hrs in presence of phosphatidylglycerol by broth dilution method; format: functional, organism-based; settings: dose <= 128.0 µg/ml, time 16-18 hrs
Staphylococcus aureus [25] = assay: Antibacterial activity against methicillin-resistant Staphylococcus aureus clinical isolate M-9 incubated for 16 to 18 hrs CLSI based by microbroth dilution assay; format: functional; settings: time 16-18 hrs
Staphylococcus aureus [26] = assay: Disruption of cell membrane in methicillin-resistant Staphylococcus aureus clinical isolate M-4 assessed as increase in fluorescence intensity measured for 30 mins by DiSC3(5) dye based analysis; format: functional, organism-based; settings: dose 8-32 µg/ml
Staphylococcus aureus [27] = assay: Bactericidal activity against methicillin-resistant Staphylococcus aureus clinical isolate M-4 at 8 times MIC incubated for 4 hrs by time kill assay relative to control; format: functional
[28] = Toxicity in KM mouse assessed as change in urea level at 20 mg/kg, sc measured after 24 hrs; format: organism-based; settings: in vivo
Staphylococcus aureus [29] = assay: Antibacterial activity against methicillin-resistant Staphylococcus aureus clinical isolate M-4 infected in KM mouse assessed as survival rate of bacteria at 10 mg/kg, sc measured after 24 hrs relative to control; format: functional
Staphylococcus aureus [30] = assay: Antibacterial activity against methicillin-resistant Staphylococcus aureus clinical isolate M-2 incubated for 16 to 18 hrs CLSI based by microbroth dilution assay; format: functional; settings: time 16-18 hrs
Staphylococcus aureus [31] = assay: Antibacterial activity against methicillin-resistant Staphylococcus aureus clinical isolate M-4 infected in KM mouse assessed as survival rate of bacteria at 5 mg/kg, sc measured after 24 hrs relative to control; format: functional
[32] = Toxicity in KM mouse assessed as histological abnormality in heart at 20 mg/kg, sc measured after 24 hrs by H and E staining based analysis; format: organism-based; settings: in vivo
[33] = Toxicity in KM mouse assessed as histological abnormality in kidney at 20 mg/kg, sc measured after 24 hrs by H and E staining based analysis; format: organism-based; settings: in vivo
Staphylococcus aureus [34] = assay: Antibacterial activity against methicillin-resistant Staphylococcus aureus clinical isolate M-4 upto 128 ug/ml incubated for 16 to 18 hrs in presence of peptidoglycan by broth dilution method; format: functional, organism-based; settings: dose <= 128.0 µg/ml, time 16-18 hrs
[35] = Toxicity in KM mouse infected with methicillin-resistant Staphylococcus aureus clinical isolate M-4 assessed as histopathological abnormality in heart at 5 to 10 mg/kg, sc measured after 24 hrs by H and E staining based analysis; format: organism-based; settings: in vivo, dose 5-10 mg/kg
Staphylococcus aureus [36] = assay: Induction of resistance development in Staphylococcus aureus ATCC 29213 at MIC measured after 20 passages; format: functional
Staphylococcus aureus [37] = assay: Antibacterial activity against methicillin-resistant Staphylococcus aureus clinical isolate M-4 upto 128 ug/ml incubated for 16 to 18 hrs in presence of cardiolipin by broth dilution method; format: functional, organism-based; settings: dose <= 128.0 µg/ml, time 16-18 hrs
Staphylococcus aureus [38] = assay: Bactericidal activity against Staphylococcus aureus ATCC 29213 at 4 to 8 times MIC by time kill assay; format: functional, organism-based; settings: TDE = time-dependent effect

CCCCCNC(=O)C[N+](C)(C)CCCCn1c(-c2ccc(N(C)C)cc2)nc2c3ccccc3c3ccccc3c21.[Br-]
99.34%: Activity (Staphylococcus aureus [14])
100%: survival at 24 h [15] | Activity (Staphylococcus aureus [22]) | Activity (Staphylococcus aureus [27])
128: fold change (FC) (Staphylococcus aureus [20])
~5: fold change (FC) (Staphylococcus aureus [23])
inactive: Activity (Staphylococcus aureus [24]) | Activity (Staphylococcus aureus [36])
2 µg/mL: MIC (Staphylococcus aureus [3]) | MIC (Staphylococcus aureus [9])
0.42%: survival at 5 mg/kg (Staphylococcus aureus [31])
0.5 µg/mL: MIC (Staphylococcus aureus [5]) | MIC (Staphylococcus aureus [12]) | MIC (Staphylococcus aureus [25])
Non-Toxic: Activity [1] | Activity [2] | Activity [4] | Activity [8] | Activity [16] | Activity [19] | Activity [28] | Activity [32] | Activity [33] | Activity [35]
1 µg/mL: MIC (Staphylococcus aureus [7]) | MIC (Staphylococcus aureus [30])
active: Activity (Staphylococcus aureus [6]) | Activity (Staphylococcus aureus [10]) | Activity (Staphylococcus aureus [11]) | Activity (Staphylococcus aureus [13]) Dose-Dependent Effect | Activity (Staphylococcus aureus [17]) Dose-Dependent Effect | Activity (Staphylococcus aureus [18]) Dose-Dependent Effect | Activity (Staphylococcus aureus [21]) | Activity (Staphylococcus aureus [26]) Dose-Dependent Effect | Activity (Staphylococcus aureus [34]) | Activity (Staphylococcus aureus [37]) | Activity (Staphylococcus aureus [38]) Tde
0.01%: survival at 10 mg/kg (Staphylococcus aureus [29])
